Assays:
[1] = test system: hematopoietic stem and progenitor cells in peripheral blood; assay: CBLB612 dose dependence of HSC mobilization, peripheral blood of C57Bl mice (Example 6); type: in vivo; conditions: C57Bl/6NHsd mice, average, regimen per group b224: AMD3100 5 mg/kg SC 1 h before euthanasia, G-CSF four daily 0.1 mg/kg SC, 612 1.2 mg/kg SC 72 h
Protocol: (§1) The doses were calculated as intended dose/kg of average weight. The adjustment of a dose was accomplished by adjusting the concentration of an article for injection while keeping the injection volume constant.
(§2) According to Table 9, all groups received a single subcutaneous (SC) injection of 5 mg/kg of AMD3100 one hour before euthanasia. Control group 1 was injected with 5 mg/kg of AMD3100 only. Control group 2 was treated with four daily 0.1 mg/kg SC injections of G-CSF and on the fifth day the mice were injected with AMD3100. Control group 8 consisted of ICR mice and received the same treatment as Control group 2. Study groups 3, 4, 5, and 6 received a single SC injection of CBLB612 at 1.2; 0.4; 0.13; and 0.04 mg/kg doses, respectively, at 72 hours before blood collection. Group 7 received a single SC injection of 1.2 mg/kg CBLB612 at 24 hours before blood collection. Study group 9 was treated with four daily SC injections of 0.1 mg/kg G-CSF, a single SC injection of 1.2 mg/kg CBLB612 at 72 hours before blood collection, and a single SC injection of 5 mg/kg AMD3100 one hour before euthanasia at the fifth day after the first G-CSF injection.

[2] = test system: hematopoietic stem and progenitor cells in bone marrow; assay: CBLB612 dose dependence of HSC number in mouse bone marrow (Example 6); type: in vivo, C57Bl/6NHsd mice; conditions: average, regimen per group b224: AMD3100 5 mg/kg SC 1 h before euthanasia, G-CSF four daily 0.1 mg/kg SC, 612 1.2 mg/kg SC 72 h
Protocol: as §1, §2

[3] = test system: hematopoietic stem and progenitor cells in peripheral blood; assay: Kinetics of HSC mobilization after CBLB612, peripheral blood of C57Bl mice (Example 7); type: in vivo
Protocol: (§3) The following mobilization of HSC and progenitor cells from the bone marrow to peripheral blood after CBLB612 injection. […] The doses were calculated as intended dose/kg of average weight. The adjustment of a dose was accomplished by adjusting the concentration of an article for injection while keeping the injection volume constant. According to Table 13, with the exception of the PBS control group 8, all groups received a 5 mg/kg dose of AMD3100 one hour before euthanasia. Control group 7 received a 6.5 mg/kg does of AMD3100. Negative control group 8 received a single SC injection of 200 μl PBS one hour before blood collection. Study groups 1-6 received single SC injections of CBLB12 at 2 mg/kg at different time points prior to blood collection. Positive control group 9 received four daily SC injections of 0.1 mg/kg G-CSF.

[4] = test system: hematopoietic stem and progenitor cells in bone marrow; assay: Kinetics of HSC number after CBLB612, bone marrow of C57Bl mice (Example 7); type: in vivo
Protocol: as §3

[5] = test system: C57/B6 mice irradiated with 9 Gy; assay: Survival of lethally irradiated mice transfused with PWBC from treated donor mice (Example 2); type: in vivo; conditions: recipients irradiated 9 Gy, transfused with PWBC from donor mice treated with the compound; 5 mice at Day 0
Protocol: Blood transfused from lipopeptide-treated mice is capable of protecting recipient mice from the effects of radiation. […] To control for the effects of CBLB612, a group of mice was injected daily for four consecutive days with 100 μg/kg G-CSF, or with PBS.
Following the last injection, blood was collected from the treated mice by cardiac puncture and combined for each group (i.e., PBS negative controls, G-CSF positive controls, and CBLB612 experimental). Next, peripheral white blood cells (PWBC) were fractionated, and 200 μL of fractionated PWBC were injected into the tail veins of irradiated recipient mice. The amount of transfused PWBC was equivalent to the amount from one mouse.
Mice from the five test groups (i.e., PBS-, G-CSF-, and CBLB612-treated mouse blood transfusions, no transfusion, and bone marrow injection), previously irradiated with 9 Gy (a lethal dose for C57/B6 mice) for 2 h prior to transfusion, were observed and their survival rate assessed following transfusion.

[6] = AMD3100 5 mg/kg SC 1 h before collection
[7] = AMD3100 + 30%: 6.5 mg/kg SC 1 h before collection

## c1cc(CN2CCCNCCNCCCNCC2)ccc1CN1CCCNCCNCCCNCC1 [AMD3100]
[1]
  7AAD−/LIN−: 254725
  KSL: 238
  KSL/CD34+: 174
  KSL/CD34−: 72
  LIN−/kit−/sca1+: 40971
  LIN−/sca1−/kit+: 1104
  total number of WBC: 629.95 10^4/ml
[2]
  7AAD−/LIN−: 2.39 ×10^6
  KSL: 1.37 ×10^4
  KSL/CD34+: 1.25 ×10^4
  KSL/CD34−: 1.24 ×10^3
  LIN−/kit−/sca1+: 15.74 ×10^4
  LIN−/sca1−/kit+: 13.26 ×10^4
  total number of cells: 4.47 10^7
[3]; [6]
  7AAD−/LIN− (average number): 421616
  KSL (average number): 360
  KSL/CD34+ (average number): 308
  KSL/CD34− (average number): 56
  LIN−/kit−/sca1+ (average number): 23142
  LIN−/sca1−/kit+ (average number): 1932
  total number of WBC (average): 962.40 10^4/ml
[3]; [7]
  7AAD−/LIN− (average number): 302644
  KSL (average number): 907
  KSL/CD34+ (average number): 856
  KSL/CD34− (average number): 63
  LIN−/kit−/sca1+ (average number): 30938
  LIN−/sca1−/kit+ (average number): 1816
  total number of WBC (average): 1111.05 10^4/ml
[4]; [6]
  7AAD−/LIN− (average number): 2.44 ×10^6
  KSL (average number): 17184
  KSL/CD34+ (average number): 14743
  KSL/CD34− (average number): 2689
  LIN−/kit−/sca1+ (average number): 206061
  LIN−/sca1−/kit+ (average number): 163895
  total number of cells (average): 4.88 10^7
[4]; [7]
  7AAD−/LIN− (average number): 2.26 ×10^6
  KSL (average number): 41791
  KSL/CD34+ (average number): 40873
  KSL/CD34− (average number): 1084
  LIN−/kit−/sca1+ (average number): 148328
  LIN−/sca1−/kit+ (average number): 281722
  total number of cells (average): 3.65 10^7

B1: G-CSF: granulocyte-colony stimulating factor, a cytokine; positive control (protein, UniProt P09919 31-207, looked up)
Granulocyte …: TPLGPASSLPQSFLLKCLEQVRKIQGDGAALQEKLVSECATYKLCHPEELVLLGHSLGIPWAPLSSCPSQALQLAGCLSQLHSGLFLYQGLLQALEGISPELGPTLDTLQLDVADFATTIWQQMEELGMAPALQPTQGAMPAFASAFQRRAGGVLVASHLQSFLEVSYRVLRHLAQP
[5]
  Number of Surviving Mice, Day 21: 5
  Number of Surviving Mice, Day 22: 5
  Number of Surviving Mice, Day 23: 5
  Number of Surviving Mice, Day 24: 5

— US20140045747A1, “METHODS FOR INCREASING AND MOBILIZING HEMATOPOIETIC STEM CELLS” (Cleveland Biolabs, Inc., priority 2007, published 2014)
